Legend:
Conditions in all cases: Compound concentration 1.0 uM
[1] = biological target: SRSF protein kinase 2 (Homo sapiens) (UniProt P78362)
[2] = biological target: TGF-beta receptor type-2 (Homo sapiens) (UniProt P37173)
[3] = biological target: T1, Serine/threonine-protein kinase TAO2 (Homo sapiens) (UniProt Q9UL54)
T1 sequence (whole entry): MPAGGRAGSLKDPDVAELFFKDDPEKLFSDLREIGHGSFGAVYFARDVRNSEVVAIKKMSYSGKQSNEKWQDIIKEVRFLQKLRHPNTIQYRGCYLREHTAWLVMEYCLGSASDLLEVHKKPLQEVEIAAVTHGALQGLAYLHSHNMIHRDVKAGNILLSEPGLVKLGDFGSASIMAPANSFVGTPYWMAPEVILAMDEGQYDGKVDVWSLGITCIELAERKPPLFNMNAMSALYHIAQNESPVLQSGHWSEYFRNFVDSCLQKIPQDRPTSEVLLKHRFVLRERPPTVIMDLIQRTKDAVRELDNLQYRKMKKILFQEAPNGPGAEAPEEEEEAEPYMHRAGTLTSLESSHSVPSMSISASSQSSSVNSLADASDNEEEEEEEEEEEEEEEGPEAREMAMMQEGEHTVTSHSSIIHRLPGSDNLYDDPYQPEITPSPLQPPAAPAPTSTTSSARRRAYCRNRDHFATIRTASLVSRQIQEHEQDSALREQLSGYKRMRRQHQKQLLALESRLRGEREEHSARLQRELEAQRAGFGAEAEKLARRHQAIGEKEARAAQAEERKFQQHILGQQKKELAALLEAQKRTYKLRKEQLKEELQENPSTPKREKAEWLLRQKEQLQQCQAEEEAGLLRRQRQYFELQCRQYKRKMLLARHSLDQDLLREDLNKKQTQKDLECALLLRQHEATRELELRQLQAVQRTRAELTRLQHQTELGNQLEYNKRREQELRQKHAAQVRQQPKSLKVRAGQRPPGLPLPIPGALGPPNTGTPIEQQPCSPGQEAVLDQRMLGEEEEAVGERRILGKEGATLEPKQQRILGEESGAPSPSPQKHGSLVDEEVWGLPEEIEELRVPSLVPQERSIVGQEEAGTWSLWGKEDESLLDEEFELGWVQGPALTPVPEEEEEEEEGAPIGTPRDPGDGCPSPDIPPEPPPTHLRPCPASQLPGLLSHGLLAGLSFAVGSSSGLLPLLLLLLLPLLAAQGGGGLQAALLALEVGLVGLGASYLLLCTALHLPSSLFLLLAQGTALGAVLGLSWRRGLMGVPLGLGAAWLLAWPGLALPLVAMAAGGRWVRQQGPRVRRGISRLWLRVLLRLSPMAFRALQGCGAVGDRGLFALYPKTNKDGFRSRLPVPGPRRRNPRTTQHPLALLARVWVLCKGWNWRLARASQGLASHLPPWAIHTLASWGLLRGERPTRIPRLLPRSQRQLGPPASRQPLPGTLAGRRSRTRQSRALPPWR

[4] = biological target: Tyrosine-protein kinase HCK (Homo sapiens) (UniProt P08631)
Sequence of Tyrosine-protein kinase HCK (Homo sapiens) (P08631 2-526 limits assumed): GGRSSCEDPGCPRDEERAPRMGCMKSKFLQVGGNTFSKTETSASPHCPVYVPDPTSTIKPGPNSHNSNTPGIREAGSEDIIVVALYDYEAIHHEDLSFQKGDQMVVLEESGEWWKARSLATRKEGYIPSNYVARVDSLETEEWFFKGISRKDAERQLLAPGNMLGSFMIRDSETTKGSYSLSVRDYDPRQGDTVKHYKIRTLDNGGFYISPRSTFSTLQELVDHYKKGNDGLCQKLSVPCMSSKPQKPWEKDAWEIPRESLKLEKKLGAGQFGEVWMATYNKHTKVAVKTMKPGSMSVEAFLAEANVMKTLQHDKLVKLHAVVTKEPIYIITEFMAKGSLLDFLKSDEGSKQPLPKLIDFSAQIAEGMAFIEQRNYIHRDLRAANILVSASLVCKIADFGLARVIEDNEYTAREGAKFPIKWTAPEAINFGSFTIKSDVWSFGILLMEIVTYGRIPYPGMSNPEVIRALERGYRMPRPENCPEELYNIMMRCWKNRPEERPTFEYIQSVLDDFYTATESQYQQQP

[5] = biological target: Interleukin-1 receptor-associated kinase 1 (Homo sapiens) (UniProt P51617)
Sequence of Interleukin-1 receptor-associated kinase 1 (Homo sapiens) (P51617 whole entry, looked up): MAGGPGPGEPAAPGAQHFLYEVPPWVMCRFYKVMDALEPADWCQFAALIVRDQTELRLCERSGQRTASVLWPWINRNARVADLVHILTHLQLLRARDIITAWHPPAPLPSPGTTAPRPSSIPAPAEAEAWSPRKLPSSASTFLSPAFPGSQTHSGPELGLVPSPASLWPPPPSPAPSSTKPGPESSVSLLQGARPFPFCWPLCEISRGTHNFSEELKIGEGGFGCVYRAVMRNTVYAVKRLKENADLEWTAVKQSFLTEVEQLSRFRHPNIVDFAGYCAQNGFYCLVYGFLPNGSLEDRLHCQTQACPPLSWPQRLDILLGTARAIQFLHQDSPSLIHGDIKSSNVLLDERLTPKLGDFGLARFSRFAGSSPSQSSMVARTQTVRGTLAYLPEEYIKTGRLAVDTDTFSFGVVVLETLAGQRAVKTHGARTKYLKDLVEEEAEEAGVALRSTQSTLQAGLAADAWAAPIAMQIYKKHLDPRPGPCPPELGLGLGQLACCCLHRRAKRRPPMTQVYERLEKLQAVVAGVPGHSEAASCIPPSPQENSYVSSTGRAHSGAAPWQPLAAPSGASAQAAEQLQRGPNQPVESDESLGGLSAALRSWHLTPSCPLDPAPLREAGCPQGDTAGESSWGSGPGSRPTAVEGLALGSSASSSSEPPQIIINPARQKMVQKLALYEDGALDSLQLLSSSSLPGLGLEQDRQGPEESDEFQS

[6] = biological target: T2, Testis-specific serine/threonine-protein kinase 3 (Homo sapiens) (UniProt Q96PN8)
T2 sequence (whole entry): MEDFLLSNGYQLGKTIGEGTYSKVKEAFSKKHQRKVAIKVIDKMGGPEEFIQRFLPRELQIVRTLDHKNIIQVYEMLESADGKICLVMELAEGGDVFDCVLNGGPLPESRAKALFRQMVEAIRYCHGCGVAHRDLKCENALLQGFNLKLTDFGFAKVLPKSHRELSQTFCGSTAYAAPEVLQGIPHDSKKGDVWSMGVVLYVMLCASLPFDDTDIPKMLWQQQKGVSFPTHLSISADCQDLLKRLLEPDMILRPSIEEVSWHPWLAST

[7] = biological target: Mitogen-activated protein kinase kinase kinase 20 (Homo sapiens) (UniProt Q9NYL2)
Sequence of Mitogen-activated protein kinase kinase kinase 20 (Homo sapiens) (Q9NYL2 2-800 limits assumed): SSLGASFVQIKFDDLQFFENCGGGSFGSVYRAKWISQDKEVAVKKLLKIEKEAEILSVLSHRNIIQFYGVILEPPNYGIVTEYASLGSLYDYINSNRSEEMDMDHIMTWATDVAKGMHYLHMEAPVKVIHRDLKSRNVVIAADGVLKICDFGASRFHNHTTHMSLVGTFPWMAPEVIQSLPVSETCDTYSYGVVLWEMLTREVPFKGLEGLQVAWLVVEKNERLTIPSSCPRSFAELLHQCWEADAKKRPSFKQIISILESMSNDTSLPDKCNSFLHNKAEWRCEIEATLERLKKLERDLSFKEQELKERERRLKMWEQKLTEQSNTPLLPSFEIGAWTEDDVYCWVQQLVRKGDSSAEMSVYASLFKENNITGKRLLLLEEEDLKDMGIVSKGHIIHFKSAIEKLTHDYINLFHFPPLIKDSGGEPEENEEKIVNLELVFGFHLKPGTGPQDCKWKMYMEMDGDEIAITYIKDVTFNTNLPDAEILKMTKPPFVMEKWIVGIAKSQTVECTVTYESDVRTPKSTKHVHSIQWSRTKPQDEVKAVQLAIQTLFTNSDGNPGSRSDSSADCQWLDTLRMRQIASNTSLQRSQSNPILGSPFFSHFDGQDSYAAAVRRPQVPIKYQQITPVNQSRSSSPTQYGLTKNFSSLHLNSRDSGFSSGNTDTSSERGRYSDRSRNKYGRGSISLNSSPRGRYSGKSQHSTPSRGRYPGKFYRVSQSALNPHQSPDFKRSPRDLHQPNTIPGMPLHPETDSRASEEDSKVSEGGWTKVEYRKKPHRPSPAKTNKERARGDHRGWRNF

[8] = biological target: T3, Bone morphogenetic protein receptor type-2 (Homo sapiens) (UniProt Q13873)
T3 sequence (whole entry): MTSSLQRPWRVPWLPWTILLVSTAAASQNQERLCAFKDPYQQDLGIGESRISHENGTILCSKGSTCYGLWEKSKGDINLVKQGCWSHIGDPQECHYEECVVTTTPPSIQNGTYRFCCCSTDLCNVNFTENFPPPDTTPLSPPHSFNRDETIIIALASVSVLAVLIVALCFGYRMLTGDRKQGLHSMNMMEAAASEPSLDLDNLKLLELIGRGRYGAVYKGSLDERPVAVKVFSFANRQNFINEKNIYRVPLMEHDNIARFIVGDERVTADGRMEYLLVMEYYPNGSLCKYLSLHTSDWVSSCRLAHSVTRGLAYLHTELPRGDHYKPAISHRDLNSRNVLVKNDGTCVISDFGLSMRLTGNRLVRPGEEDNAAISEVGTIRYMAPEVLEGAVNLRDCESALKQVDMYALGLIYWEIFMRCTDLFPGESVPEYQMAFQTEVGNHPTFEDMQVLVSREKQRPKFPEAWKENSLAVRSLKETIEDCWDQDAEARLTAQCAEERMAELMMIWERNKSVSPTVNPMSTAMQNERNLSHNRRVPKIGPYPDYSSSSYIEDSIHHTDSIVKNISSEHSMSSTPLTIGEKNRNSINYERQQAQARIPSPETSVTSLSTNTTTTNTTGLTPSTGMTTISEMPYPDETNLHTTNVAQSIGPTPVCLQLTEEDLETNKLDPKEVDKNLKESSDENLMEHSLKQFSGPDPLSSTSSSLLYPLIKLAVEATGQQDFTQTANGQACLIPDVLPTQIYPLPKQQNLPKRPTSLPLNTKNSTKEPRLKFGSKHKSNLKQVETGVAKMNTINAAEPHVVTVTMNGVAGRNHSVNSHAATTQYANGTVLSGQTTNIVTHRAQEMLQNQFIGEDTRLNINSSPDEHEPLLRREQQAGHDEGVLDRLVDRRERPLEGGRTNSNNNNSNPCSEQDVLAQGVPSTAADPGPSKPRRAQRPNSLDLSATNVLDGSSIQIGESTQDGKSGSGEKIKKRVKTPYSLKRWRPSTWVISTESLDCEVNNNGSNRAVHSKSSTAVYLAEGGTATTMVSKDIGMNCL

Measured: % residual kinase activity

Sequence of TGF-beta receptor type-2 (Homo sapiens) (P37173 whole entry): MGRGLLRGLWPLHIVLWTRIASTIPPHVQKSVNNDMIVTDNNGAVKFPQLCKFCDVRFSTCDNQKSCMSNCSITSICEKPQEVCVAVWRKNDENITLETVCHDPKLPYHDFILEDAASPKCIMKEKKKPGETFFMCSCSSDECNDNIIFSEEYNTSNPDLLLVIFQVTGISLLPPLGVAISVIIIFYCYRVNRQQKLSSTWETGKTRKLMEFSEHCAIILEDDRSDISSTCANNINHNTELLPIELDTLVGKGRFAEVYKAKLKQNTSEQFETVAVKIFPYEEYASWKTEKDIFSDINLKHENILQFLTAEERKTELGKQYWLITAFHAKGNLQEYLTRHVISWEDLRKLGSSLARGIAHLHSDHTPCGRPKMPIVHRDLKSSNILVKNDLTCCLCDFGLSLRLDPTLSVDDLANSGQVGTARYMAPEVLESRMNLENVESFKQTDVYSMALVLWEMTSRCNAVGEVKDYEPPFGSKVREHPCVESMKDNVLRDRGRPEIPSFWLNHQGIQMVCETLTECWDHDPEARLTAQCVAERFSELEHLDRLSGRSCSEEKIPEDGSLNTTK
Sequence of SRSF protein kinase 2 (Homo sapiens) (P78362 whole entry, looked up): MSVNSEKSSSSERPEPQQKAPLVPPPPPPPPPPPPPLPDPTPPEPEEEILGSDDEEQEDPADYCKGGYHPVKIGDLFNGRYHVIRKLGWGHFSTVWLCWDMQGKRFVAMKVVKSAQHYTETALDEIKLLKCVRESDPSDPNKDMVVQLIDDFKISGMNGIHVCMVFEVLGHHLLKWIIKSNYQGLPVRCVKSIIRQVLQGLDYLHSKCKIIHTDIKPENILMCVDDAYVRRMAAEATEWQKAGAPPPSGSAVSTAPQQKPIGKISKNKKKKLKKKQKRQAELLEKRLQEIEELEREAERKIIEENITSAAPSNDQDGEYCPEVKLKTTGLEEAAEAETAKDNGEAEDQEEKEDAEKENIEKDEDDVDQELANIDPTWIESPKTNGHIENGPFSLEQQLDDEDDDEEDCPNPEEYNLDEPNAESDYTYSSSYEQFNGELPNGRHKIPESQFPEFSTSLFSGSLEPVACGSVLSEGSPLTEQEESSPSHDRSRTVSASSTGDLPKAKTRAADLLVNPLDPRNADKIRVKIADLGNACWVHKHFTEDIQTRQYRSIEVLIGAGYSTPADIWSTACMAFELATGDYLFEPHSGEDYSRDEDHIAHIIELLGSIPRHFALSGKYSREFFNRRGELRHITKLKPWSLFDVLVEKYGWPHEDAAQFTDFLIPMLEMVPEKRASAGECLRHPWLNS

CN1CCN(c2cnc3c(C4CCN(C(=O)c5ccc(OC(F)(F)F)cc5N)CC4)ncnc3c2)CC1 [BAY-885]
inactive: [1] 99% | [2] 108% | [3] 113% | [4] 107% | [5] 110% | [6] 108% | [7] 100% | [8] 100%

Reference: ChEMBL document CHEMBL4507268 (2021)
